The values that follow are results of earlier work, collected in patent US20250319084A1, “ENDOCRINE THERAPY AND ABEMACICLIB COMBINATION FOR THE ADJUVANT TREATMENT OF NODE-POSITIVE, EARLY STAGE, HORMONE RECEPTOR-POSITIVE, HUMAN EPIDERMAL GROWTH FACTOR RECEPTOR 2-NEGATIVE BREAST CANCER” (Eli Lilly and Company, priority 2017, published 2025).

Each structure is given as a SMILES string. Where two headings read alike, the source gives them in different places.

The subject of data set [1] is human cancer xenografts, including breast cancer. Particulars: multiple murine xenograft models for human cancer. A general note: In xenograft studies the graft and the host belong to different species.
The test system of data set [2] is early neoadjuvant breast cancer. The conditions noted are these: 150 mg twice daily, as monotherapy and in combination with anastrozole.
The subject of data set [3] is HR+metastatic breast cancer. The conditions noted are these: JPBA Phase 1b, continuously dosed single agent, across dose levels, heavily pretreated HR+ metastatic breast cancer refractory to endocrine therapy.
Data set [4] concerns 46 breast cancer cell lines. Particulars: panel of 46 breast cancer cell lines representing known molecular subgroups.
Data set [5] concerns HR+metastatic breast cancer. The conditions noted are these: MONARCH 1 Phase 2, single agent, 200-mg dose twice daily, heavily pretreated HR+ metastatic breast cancer refractory to endocrine therapy.
The conditions of data set [6]: nonclinical species.
Data set [7] concerns HR+ early breast cancer involving axillary lymph nodes.

As to `CCN1CCN(Cc2ccc(Nc3ncc(F)c(-c4cc(F)c5nc(C)n(C(C)C)c5c4)n3)nc2)CC1` [Abemaciclib, [5-(4-ethyl-piperazin-1-ylmethyl)-pyridin-2-yl]-[5-fluoro-4-(7-fluoro-3-isopropyl-2-methyl-3H-benzoimidazol-5-yl)-pyrimidin-2-yl]-amine], the tumor growth inhibition result in data set [1] is given as “significantly inhibit tumor growth”. The safety profile entry in data set [2] is given as “acceptable safety profile”. Besides, in data set [2] (versus anastrozole alone), the “reduction of tumor cell proliferation marker (Ki67 index)” value is “to a significantly greater extent than anastrozole alone”. The response rate in data set [3] is 33.3%; in data set [5], 19.7%. Besides, the “growth inhibition in vitro (sensitivity by subgroup)” value in data set [4] was “sensitivity to CDK4 and CDK6 inhibition is greater in ER+breast cancers with luminal histology”. In addition, the tolerability entry in the data set with HR+mBC (JPBH Phase 1b, combined with standard endocrine therapies) is “tolerable”. Besides, in the data set with HR+mBC (JPBH, abemaciclib plus endocrine therapy, predominantly low-grade severity, appear dose-dependent), the “most common adverse events” value is “fatigue, nausea, diarrhea, leukopenia, lymphopenia, neutropenia, and anemia”. Moreover, the toxicity profile result in data set [6] is “acceptable toxicity profile”.

Regarding `N#Cc1ccc(C(c2ccc(C#N)cc2)n2cncn2)cc1` [letrozole], the 4-year disease-free survival in data set [7] (BIG 1-98, patients with higher Ki67 values (>11%)) was 85%; in data set [7] (BIG 1-98, patients with low (≤11%) Ki67 levels at baseline), 93%.
